Assay [1] is described as follows: Ratio of antiviral activity of HSV-1 to the ratio of cytotoxicity of Vero (EC50/CC50) against cytopathic effect inhibition assay in CEM cells; 28/>100. It is filed as functional. For orientation: Cytopathic effects are the visible damage that an infection or toxin causes in cultured cells.
The nature of assay [2]: Antiviral activity against HBV in 2.2.15 cells (EC50) in HBV-DNA inhibition assay against CEM cells; 2/>100.
Assay [3] is described as follows: Antiviral activity against HCMV (AD 169) in HFF cells against cytopathic effect inhibition assay; 1.0/303.
Assay [4] is described as follows: Ratio of antiviral activity of VZV to the ratio of cytotoxicity of HFF (EC50/CC50) against cytopathic effect inhibition assay; 2.5/368. It is filed as functional.
A short description of assay [5]: Ratio of antiviral activity of HSV-1 to the ratio of cytotoxicity of HFF (EC50/CC50) against cytopathic effect inhibition assay; >92/433. It is filed as functional.
Assay [6] in a line: Antiviral activity against HIV-1 in MT-2 cells (EC50) against cytopathic effect inhibition assay; 0.75/32.
A short description of assay [7]: Antiviral activity against EBV in Daudi cells (EC50) against viral capsid antigen immunofluorescence assay (VCA-IF); 3.2/368.
The nature of assay [8]: Ratio of antiviral activity of HSV-2 to the ratio of cytotoxicity of Vero (EC50/CC50) against cytopathic effect inhibition assay in CEM cells; 59/>100. It is filed as functional.
Assay [9] is described as follows: Antiviral activity against HCMV (Towne) in HFF cells by plaque reduction assay. (In a plaque reduction assay, fewer plaques than in the control indicate reduced infectivity or spread.)
Assay [10] in a line: Ratio of antiviral activity of HSV-1 to the ratio of cytotoxicity of BSC-1 (EC50/CC50) against KB cells; 26/78. It is filed as functional.
Assay [11] in a line: Ratio of antiviral activity of HSV-2 to the ratio of cytotoxicity of HFF (EC50/CC50) against cytopathic effect inhibition assay; 80/433. It is filed as functional.
Assay [12] can be described thus: Ratio of antiviral activity of HSV-1 to the ratio of cytotoxicity of BSC-1 (EC50/CC50) against KB cells; 2.5/0.5. It is filed as functional.
Assay [13] is described as follows: Ratio of antiviral activity of HBV to the ratio of cytotoxicity of 2.2.15 (EC50/CC50) in HBV-DNA inhibition assay against CEM cells; 0.01/0.3. It is filed as functional, CCRF-CEM.
Assay [14] is described as follows: Antiviral activity against HIV-1 in MT-2 cells (EC50) against cytopathic effect inhibition assay; 0.003/0.24.
A short description of assay [15]: Ratio of antiviral activity of HSV-1 to the ratio of cytotoxicity of Vero (EC50/CC50) against cytopathic effect inhibition assay in CEM cells; >1/<10. It is filed as functional.
Assay [16] is described as follows: Ratio of antiviral activity of HSV-2 to the ratio of cytotoxicity of HFF (EC50/CC50) against cytopathic effect inhibition assay; 1.1/18. It is filed as functional.
Assay [17] is described as follows: Antiviral activity against HCMV (Towne) in HFF cells by plaque reduction assay. The source holds these as a separate data set.
Assay [18] is described as follows: Ratio of antiviral activity of VZV to the ratio of cytotoxicity of HFF (EC50/CC50) against cytopathic effect inhibition assay; 7.6/101. It is filed as functional.
Assay [19] has as its system HCT-15. As to the kind of experiment: Antitumor activity against human HCT15 to multiple drug-resistant human colon tumor at 500 ug/disk in disk diffusion assay. It is filed as functional. A general note: A growth-free zone around the sample is the usual read-out of agar diffusion tests.
Assay [20] can be described thus: Antiviral activity against EBV in Daudi cells (EC50) against viral capsid antigen immunofluorescence assay (VCA-IF); 1.0/>108.
The nature of assay [21]: Ratio of antiviral activity of HSV-1 to the ratio of cytotoxicity of HFF (EC50/CC50) against cytopathic effect inhibition assay; <0.07/18. It is filed as functional.
Assay [22] can be described thus: Antiviral activity against HCMV (AD 169) in HFF cells (EC50) against cytopathic effect inhibition assay.
Assay [23] can be described thus: Ratio of antiviral activity of HSV-1 to the ratio of cytotoxicity of BSC-1 (EC50/CC50) against KB cells; 15/>100. It is filed as functional.
Assay [24] is described as follows: Ratio of antiviral activity of VZV to the ratio of cytotoxicity of HFF (EC50/CC50) against cytopathic effect inhibition assay; 5.0/111. It is filed as functional.
Assay [25] can be described thus: Antiviral activity against HCMV (AD 169) in HFF cells assessed by cytopathic effect inhibition assay; 5.2/90.
Assay [26] is described as follows: Ratio of antiviral activity of HSV-2 to the ratio of cytotoxicity of Vero (EC50/CC50) against cytopathic effect inhibition assay in CEM cells; 40/91. It is filed as functional.
A short description of assay [27]: Antitumor activity against normal cells (fibroblasts) at 500 ug/disk in disk diffusion assay; Value ranges from 0-100. It is filed as functional.
Assay [28] concerns L1210. As to the kind of experiment: Antitumor activity against leukemia L1210 at 500 ug/disk in disk diffusion assay. It is filed as functional, Mus musculus.
A short description of assay [29]: Antiviral activity against EBV in Daudi cells against viral capsid antigen immunofluorescence assay (VCA-IF).
Assay [30] is described as follows: Ratio of antiviral activity of HIV-1to the ratio of cytotoxicity of MT-2 (EC50/CC50) against cytopathic effect inhibition assay; 1/10. It is filed as functional.
Assay [31] in a line: Antiviral activity against HBV in 2.2.15 cells in HBV-DNA inhibition assay.
Assay [32] has as its system HCT-15. As to the kind of experiment: Antitumor activity against human HCT15 to multiple drug-resistant human colon tumor at 500 ug/disk in disk diffusion assay; Value ranges from 300-400. It is filed as functional.
Assay [33] can be described thus: Ratio of antiviral activity of HSV-1 to the ratio of cytotoxicity of HFF (EC50/CC50) against cytopathic effect inhibition assay; >184/>184. It is filed as functional.
Assay [34] is described as follows: Antiviral activity of HCMV (Towne)in HFF cells by plaque reduction assay.
Assay [35] is described as follows: Ratio of antiviral activity of HSV-1 to the ratio of cytotoxicity of Vero (EC50/CC50) against cytopathic effect inhibition assay in CEM cells; 31/91. It is filed as functional.
Assay [36] can be described thus: Ratio of antiviral activity of HSV-2 to the ratio of cytotoxicity of HFF (EC50/CC50) against cytopathic effect inhibition assay; >184/>184. It is filed as functional.

Molecules are shown by their SMILES.

One may read the EC50 as the concentration that produces a half-maximal response. A higher EC50 goes with weaker potency. `Nc1ncnc2c1ncn2/C=C1/CC1CO` (stereo unspecified): the Ratio in assay [1] was 28; in assay [4] it was 2.5; in [5], >92; in assay [8], 59; in [10] it was 26; in assay [11] it was 80. Further, the EC50 in [2] was 2000 nM; in assay [3], 1000 nM; in assay [6] it was 750 nM; in [7], 3200 nM; in assay [9], 2100 nM.

Turning to `COC(=O)C(C)NP(=O)(OCC1C/C1=C/n1cnc2c(N)ncnc21)Oc1ccccc1` (stereo unspecified), the Ratio is listed as 2.5 in assay [12]; 0.01 in [13]; >1 in assay [15]; 1.1 in [16]; 7.6 in assay [18]; <0.07 in assay [21]. In addition, the EC50 in [14] is 3 nM; in [17], 140 nM; in [20] it was 1000 nM; in [22], 1300 nM. Further, in [19], the Activity amounted to 200 ug disk-1.

As for `COC(=O)C(Cc1c[nH]c2ccccc12)NP(=O)(O)OCC1C/C1=C/n1cnc2c(N)ncnc21` (stereo unspecified), the Ratio in [23] is on record as 15; in assay [24] it was 5; in assay [26], 40; in [30], 1; in [33] it was >184; in assay [35] it was 31. In assay [36], the Ratio is listed as >184. Besides, the EC50 in assay [25] is 5200 nM; in assay [29], > 18000 nM; in assay [31], 490 nM; in assay [34] it was 1500 nM. The values for the Activity in [27], in assay [28] and in [32] were 0 zone units, 0 zone units and 300 zone units, respectively.

The values above are taken from ChEMBL document CHEMBL1135309, “Tryptophanyl phosphoramidates as prodrugs of synadenol and its E-isomer: synthesis and biological activity” (2002).
